Assay results taken from patent US20120251495A1, “PTERIN BASED THERAPIES FOR INFLAMMATORY CONDITIONS” (priority 2008, published 2012).

Columns and labels:
IDO = biological target: T1, IDO (Homo sapiens, UniProt P14902); assay: IDO inhibition in vitro with human PBMCs (kynurenine production); format: cell-based
T1 construct: endogenous in cells; host or cells: human PBMCs (peripheral blood mononuclear cells), unstimulated or PHA-stimulated
Procedure: The purpose of this in vitro study was to measure the IC50 values of IDO in PBMCs for 1) calcium pterin, CaCl2, and pterin to determine measurable synergistic effects between Ca^+2 and pterin, and 2) to compare these values with those of DCP for the assessment of relative IDO inhibitory strength. IC50 (μM) values for IDO inhibition by (1:4 mol:mol) calcium pterin, DCP, CaCl2, and pterin were determined in vitro with human PBMCs (both PHA-stimulated and unstimulated) by measuring kynurenine production as previously described (Winkler et al., 2006).

[1] = system: MDA-MB-231 xenograph tumors; assay: Combined analysis of DCP + control mice: Day 42,43 relative tumor volume and DCP/APCP; format: in vivo, nude mice
Procedure: Standard ANOVA models for group effects, curve fitting, and stepwise regression analyses were carried out using SPSS Graduate Pack 15.0 for Windows (2006), with p<0.05 used to determine significance.
Table 7 gives the plasma cytokine and relative tumor volume Spearman rank order correlations for the 12 DCP+ control mice (Control [n=3; from 1st experiment]; 23 mg/(kg d) DCP [n=5; from 2nd experiment]; and 69 mg/(kg d) DCP [n=4; from 2nd experiment]).
To further determine significant causal and correlational linkages among DCP dosage, plasma cytokine changes, and relative tumor volume, the following curve fitting analyses were carried out with the 12 DCP+ control mice. First, plotting DCP versus Day 42,43 Relative Tumor Volume yielded a significant quadratic relationship (FIG. 11). Second, curve fitting each cytokine versus Day 42,43 Relative Tumor Volume found no significant linear relationship and only one significant quadratic relationship, i.e., with IL-12 (p=0.004; FIG. 12). Third, plotting DCP versus IL-12 yielded a weakly significant quadratic relationship (p=0.048; FIG. 13).
Substantially more significant analogous plots were generated by first carrying out the Table 8 stepwise regression analysis which derived the DCP antitumor plasma cytokine pattern (DCP/APCP), shown to be a more significant cytokine composite measure than IL-12 taken alone. The Table 8 stepwise regression analysis of the cytokine data from the 12 DCP+ control mice allowed for the calculation of DCP/APCP scores for each mouse. These DCP/APCP scores are plotted versus DCP dosage in […], which illustrates the significant quadratic dose-response relationships of DCP versus the derived plasma DCP/APCP composite measure. From this figure the estimated optimum dosage of DCP for maximum tumor growth inhibition is 42 mg/(kg day), while the estimated optimum dosage for maximum DCP/APCP induction is 44 mg/(kg day).

[2] = system: hepatitis B core antigen (HBcAg); assay: Liver HBcAg assay in HBV transgenic mice; format: in vivo; settings: 2.3 mg/(kg d)
Procedure: Experimental design. DCP was administered per os, once daily for 14 days to randomly assigned HBV transgenic mice at 23, 7.3, and 2.3 mg/(kg d). ADV was used as a positive control at 10 mg/(kg d) using the same treatment schedule and vehicle (0.4% CMC). On day 14, mice were euthanized to collect serum and liver samples to perform liver HBV DNA, liver core and serum HBe assays, serum cytokine/chemokine profiles, and IDO metabolite assays.
Liver HBcAg assay. Liver biopsies were processed for detection of hepatitis B core antigen (HBcAg) (Motley J D, Motter N E, Taro B, Lay M & Fairman J. Efficacy of cationic lipid-DNA complexes (CLDC) on hepatitis B virus in transgenic mice. Antiviral Res 2008; 79:71-79). Three different parameters were obtained from each tissue section. […] The first two parameters were obtained by counting cells surrounding central veins as follows: the total number of cells, the number of cells with stained nuclei, and the number of cells with stained cytoplasms. The identities of the samples were blinded to person counting. The stained nuclei counts or the stained cytoplasm counts were divided by the total cells. Three central vein areas were counted for each slide sample. For the third parameter, a field not in a central vein area was counted for the total number of stained nuclei. One-quarter of the field was counted. Three such fields were counted per liver section. The identity of the samples was blinded to the person reading the slides.

[3] = Toxicity by body weight changes in nude mice; format: in vivo, athymic nude mice
Procedure: The aims of the 1st experiment were to determine a dose-response curve for the (1:4 mol:mol) calcium pterin suspension, to compare the antitumor activity of this suspension to pterin alone (pterin control), and to test the effect of CaPterin mega-dosing at 100 mg/kg/day. Antitumor efficacy was evaluated in nude mice with MDA-MB-231 human tumor xenographs by Perry Scientific (San Diego, Calif.). In the 1st experiment, twenty-three athymic nude (nu/nu) female mice, ages 3-4 weeks, were purchased from Harlan Sprague Dawley, Inc. (Indianapolis, Ind.). 5×10^6 MDA-MB-231 cancer cells were injected subcutaneously into the right flank of each mouse. When tumors reached 3-5 mm in size, twenty mice were divided into four treatment/control groups of five mice each. The four treatment groups were: (1:4 mol:mol) calcium pterin (7 mg/kg/day); pterin (21 mg/kg/day); (1:4 mol:mol) calcium pterin (21 mg/kg/day); and sterile water control. […]
The control mice in the 1st experiment were treated with sterile water while the control mice in the 2nd experiment were untreated to evaluate the effect of mouse handling and gavaging upon tumor growth. […] Tumors were measured twice weekly with calipers and body weights taken twice weekly on the day of tumor measurements. […]

[4] = system: MDA-MB-231 human breast xenographs; settings: Moheno, 2004, cited from earlier work

T1 sequence (P14902 whole entry): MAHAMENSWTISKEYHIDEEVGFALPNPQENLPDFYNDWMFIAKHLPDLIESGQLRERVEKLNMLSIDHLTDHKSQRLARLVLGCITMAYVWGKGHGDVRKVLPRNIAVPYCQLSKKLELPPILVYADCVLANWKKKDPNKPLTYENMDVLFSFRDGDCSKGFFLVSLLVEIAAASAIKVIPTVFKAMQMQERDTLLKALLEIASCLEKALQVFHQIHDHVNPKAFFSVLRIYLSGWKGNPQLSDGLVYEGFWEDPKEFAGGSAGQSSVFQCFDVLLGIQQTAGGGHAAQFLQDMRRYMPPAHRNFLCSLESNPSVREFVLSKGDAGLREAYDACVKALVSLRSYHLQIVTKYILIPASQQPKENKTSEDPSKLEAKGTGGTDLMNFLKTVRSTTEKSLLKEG

Nc1nc([O-])c2nccnc2n1.Nc1nc([O-])c2nccnc2n1.[Ca+2] [DCP, dipterinyl calcium pentahydrate]
IC50 (IDO; PHA stimulated per Table 3): 320 µM
IC50 (IDO; unstimulated per Table 3): 470 µM
tumor growth inhibition relative to controls (FIG. 9) ([1]; 23 mg/(kg day), Day 42,43 relative tumor volume, combined data): significant tumor growth inhibition
plasma IL-4 correlated to antitumor response ([1]; DCP/APCP): increased
plasma IL-6 correlated to antitumor response ([1]; DCP/APCP): decreased
plasma IL-12 correlated to antitumor response ([1]; DCP/APCP): increased
dose range in which antitumor response and cytokine pattern are optimized ([1]; nude mice with MDA-MB-231 xenograph tumors): 40-46 mg/(kg day)
estimated optimum dosage for maximum DCP/APCP induction ([1]; quadratic fit, FIG. 11): 44 mg/(kg day)
estimated optimum dosage for maximum tumor growth inhibition ([1]; quadratic fit, FIG. 11): 42 mg/(kg day)
HBcAg Stained nuclei/total, Female levels (mean ± SEM) ([2]; female): 0.36 ± 0.046
HBcAg Stained nuclei/total, Male levels (mean ± SEM) ([2]; male): 0.51 ± 0.041

(1:4 mol:mol) calcium pterin [CaPterin]
toxicity (appreciable weight loss) ([3]; mega-dosed 100 mg/kg/day oral gavage for up to 31 days): no observed toxicity
greatest weight loss (body weight) ([3]; mega-dosed group 100 mg/kg/day, one mouse, after 32 days): 8.1%
T/C ratio ([4]; 7 mg/kg/day): 41%
antitumor efficacy against MDA-MB-231 human breast xenographs ([4]; nude mice): significant antitumor efficacy
